± gives the expanded uncertainty stated by the source.
Experiment: molar heat capacity at constant pressure
Settings: 101.33 kPa

CCCO [propan-1-ol]
Settings | molar heat capacity at constant pressure [J/K/mol]
5.01 K, Crystal | 0.17 ± 0.02
5.41 K, Crystal | 0.22 ± 0.02
6.14 K, Crystal | 0.29 ± 0.03
6.36 K, Crystal | 0.35 ± 0.03
7.33 K, Crystal | 0.52 ± 0.03
7.72 K, Crystal | 0.61 ± 0.03
8.72 K, Crystal | 0.9 ± 0.04
8.94 K, Crystal | 0.94 ± 0.04
10.13 K, Crystal | 1.44 ± 0.04
10.33 K, Crystal | 1.49 ± 0.04
11.74 K, Crystal | 2.19 ± 0.05
11.83 K, Crystal | 2.23 ± 0.05
13.48 K, Crystal | 3.15 ± 0.07
13.5 K, Crystal | 3.19 ± 0.07
15.36 K, Crystal | 4.38 ± 0.08
15.38 K, Crystal | 4.4 ± 0.08
17.37 K, Crystal | 5.81 ± 0.09
17.42 K, Crystal | 5.83 ± 0.09
19.52 K, Crystal | 7.46 ± 0.11
19.6 K, Crystal | 7.53 ± 0.11
21.78 K, Crystal | 9.32 ± 0.12
21.9 K, Crystal | 9.44 ± 0.12
24.15 K, Crystal | 11.43 ± 0.13
24.29 K, Crystal | 11.57 ± 0.13
26.63 K, Crystal | 13.58 ± 0.13
26.79 K, Crystal | 13.71 ± 0.13
29.24 K, Crystal | 15.59 ± 0.13
29.43 K, Crystal | 15.75 ± 0.13
32.1 K, Crystal | 18.09 ± 0.15
34.44 K, Crystal | 20.16 ± 0.16
36.72 K, Crystal | 21.88 ± 0.17
39.11 K, Crystal | 23.5 ± 0.17
41.56 K, Crystal | 25.36 ± 0.18
44.03 K, Crystal | 27.19 ± 0.19
46.52 K, Crystal | 28.98 ± 0.2
49.05 K, Crystal | 30.75 ± 0.2
51.61 K, Crystal | 32.44 ± 0.21
54.2 K, Crystal | 34.01 ± 0.22
56.81 K, Crystal | 35.59 ± 0.22
59.46 K, Crystal | 37.12 ± 0.23
62.13 K, Crystal | 38.64 ± 0.23
64.82 K, Crystal | 40.12 ± 0.24
67.54 K, Crystal | 41.54 ± 0.25
70.28 K, Crystal | 42.95 ± 0.25
73.03 K, Crystal | 44.31 ± 0.26
75.8 K, Crystal | 45.65 ± 0.26
78.58 K, Crystal | 46.95 ± 0.27
81.38 K, Crystal | 48.22 ± 0.27
84.17 K, Crystal | 49.46 ± 0.28
86.9 K, Crystal | 50.65 ± 0.28
89.55 K, Crystal | 51.79 ± 0.29
92.15 K, Crystal | 52.87 ± 0.51
94.68 K, Crystal | 53.91 ± 0.51
97.15 K, Crystal | 54.9 ± 0.51
98.26 K, Crystal | 55.24 ± 0.51
99.58 K, Crystal | 55.88 ± 0.51
101.41 K, Crystal | 56.44 ± 0.51
104.32 K, Crystal | 57.81 ± 0.52
107.19 K, Crystal | 59.01 ± 0.52
110.07 K, Crystal | 60.14 ± 0.52
112.95 K, Crystal | 61.2 ± 0.52
115.84 K, Crystal | 62.28 ± 0.52
118.73 K, Crystal | 63.39 ± 0.53
121.63 K, Crystal | 64.43 ± 0.53
124.53 K, Crystal | 65.69 ± 0.53
127.43 K, Crystal | 66.87 ± 0.53
130.34 K, Crystal | 68.07 ± 0.54
133.25 K, Crystal | 69.29 ± 0.54
136.16 K, Crystal | 70.53 ± 0.54
139.06 K, Crystal | 71.9 ± 0.54
141.97 K, Crystal | 73.6 ± 0.55
144.84 K, Crystal | 79.58 ± 0.56
153 K, Liquid | 106.26 ± 0.61
155.75 K, Liquid | 106.33 ± 0.61
158.49 K, Liquid | 106.55 ± 0.61
161.22 K, Liquid | 106.79 ± 0.61
163.93 K, Liquid | 107.01 ± 0.61
166.64 K, Liquid | 107.32 ± 0.61
169.34 K, Liquid | 107.61 ± 0.62
172.03 K, Liquid | 107.88 ± 0.62
174.71 K, Liquid | 108.22 ± 0.62
177.37 K, Liquid | 108.49 ± 0.62
180.03 K, Liquid | 108.81 ± 0.62
182.68 K, Liquid | 109.05 ± 0.62
185.32 K, Liquid | 109.37 ± 0.62
187.95 K, Liquid | 109.64 ± 0.62
190.57 K, Liquid | 109.94 ± 0.62
193.19 K, Liquid | 110.41 ± 0.62
195.79 K, Liquid | 110.64 ± 0.62
198.38 K, Liquid | 110.93 ± 0.62
200.97 K, Liquid | 111.4 ± 0.62
203.35 K, Liquid | 111.76 ± 0.62
205.56 K, Liquid | 112.13 ± 0.62
208.15 K, Liquid | 112.54 ± 0.63
211.11 K, Liquid | 113.05 ± 0.63
214.08 K, Liquid | 113.58 ± 0.63
217.04 K, Liquid | 114.16 ± 0.63
219.99 K, Liquid | 114.78 ± 0.63
222.92 K, Liquid | 115.39 ± 0.63
225.84 K, Liquid | 116.05 ± 0.63
228.74 K, Liquid | 116.74 ± 0.63
231.64 K, Liquid | 117.43 ± 0.63
234.52 K, Liquid | 118.2 ± 0.64
237.38 K, Liquid | 118.92 ± 0.64
240.23 K, Liquid | 119.7 ± 0.64
243.07 K, Liquid | 120.56 ± 0.64
245.89 K, Liquid | 121.39 ± 0.64
248.7 K, Liquid | 122.27 ± 0.64
251.5 K, Liquid | 123.2 ± 0.65
254.28 K, Liquid | 123.87 ± 0.65
257.05 K, Liquid | 124.8 ± 0.65
259.81 K, Liquid | 125.83 ± 0.65
262.55 K, Liquid | 126.88 ± 0.65
265.28 K, Liquid | 127.98 ± 0.66
267.99 K, Liquid | 129.08 ± 0.66
270.68 K, Liquid | 130.22 ± 0.66
273.36 K, Liquid | 131.39 ± 0.66
276.02 K, Liquid | 132.62 ± 0.67
278.67 K, Liquid | 133.86 ± 0.67
281.3 K, Liquid | 135.13 ± 0.67
283.91 K, Liquid | 136.42 ± 0.67
286.51 K, Liquid | 137.76 ± 0.68
289.09 K, Liquid | 139.17 ± 0.68
291.66 K, Liquid | 140.59 ± 0.68
294.2 K, Liquid | 141.98 ± 0.68
296.74 K, Liquid | 143.51 ± 0.69
299.25 K, Liquid | 144.96 ± 0.69
301.34 K, Liquid | 146.08 ± 0.69
303.15 K, Liquid | 147.29 ± 0.69
305.04 K, Liquid | 148.45 ± 0.7
306.99 K, Liquid | 149.78 ± 0.7
308.94 K, Liquid | 151.07 ± 0.7
310.9 K, Liquid | 152.24 ± 0.7
312.85 K, Liquid | 153.55 ± 0.71
314.81 K, Liquid | 155.12 ± 0.71
316.76 K, Liquid | 156.37 ± 0.71
318.71 K, Liquid | 157.72 ± 0.72
320.67 K, Liquid | 159.16 ± 0.72
322.62 K, Liquid | 160.63 ± 0.72
324.58 K, Liquid | 162.08 ± 0.72
326.53 K, Liquid | 163.47 ± 0.73
328.49 K, Liquid | 165.03 ± 0.73
330.44 K, Liquid | 166.52 ± 0.73
332.4 K, Liquid | 168.01 ± 0.74
334.35 K, Liquid | 169.52 ± 0.74
336.31 K, Liquid | 171.04 ± 0.74
338.26 K, Liquid | 172.66 ± 0.75
340.22 K, Liquid | 174.2 ± 0.75
342.17 K, Liquid | 175.61 ± 0.75
344.13 K, Liquid | 177.2 ± 0.75
346.1 K, Liquid | 178.27 ± 0.76
348.07 K, Liquid | 180.29 ± 0.76
350.04 K, Liquid | 181.83 ± 0.76

From the NIST ThermoML archive (doi:10.1021/je0499768)
